Experimental findings from patent US6218379A, “Tricyclic carbacephems” (Hoffmann-la Roche Inc., priority 1996, dated 2001) are described below.

≈ marks a conversion by molar mass, not a printed value. Where a name gives a salt, the structure may show the parent alone.

Experiment [1] concerns Staphylococcus aureus 887. Put plainly: Antibacterial activity in vitro (MIC) against Staphylococcus aureus 887. It counts as cell-based. The settings on record: read-out: MIC S. aureus 887. On the procedure:
(§1) The minimum inhibitory concentration in vitro (MIC in μg/ml) of a compound of formula I against Citrobacter freundii 1982 and Staphylococcus aureus 887 is measured and compiled in Table 2.

The test system of experiment [2] is Citrobacter freundii 1982. The experiment is described as follows: Antibacterial activity in vitro (MIC) against Citrobacter freundii 1982. In kind it is cell-based. The conditions noted are these: read-out: MIC C. freundii 1982. Here is the method:
as §1

As a reminder, the MIC is the lowest concentration that inhibits growth of the organism. As to `CC(=O)N1C[C@H]2CC(/C=C3\CCN(c4ccc[n+](CC(N)=O)c4)C3=O)=C(C(=O)[O-])N3C(=O)[C@@H]1[C@@H]23` [Example 40, (E)-(1aS,3aR,6bR)-2-Acetyl-5-[1-(1-carbamoylmethyl-pyridin-1-ium-3-yl)-2-oxo-pyrrolidin-3-ylidenemethyl]-1-oxo-1a,2,3,3a,4,6b-hexahydro-1H-2,6a-diaza-cyclobut[cd]indene-6-carboxylate], the MIC in experiment [1] was 2 mg/L (≈ 4.3 µM); in experiment [2], 4 mg/L (≈ 8.59 µM).

On to `O=C(O)C1=C(/C=C/c2ccccc2)C[C@@H]2CN[C@@H]3C(=O)N1[C@H]23` [Example 49, (E)-(1aS,3aR,6bR)-1-Oxo-5-styryl-1a,2,3,3a,4,6b-hexahydro-1H-2,6a-diaza-cyclobut[cd]indene-6-carboxylic acid trifluoroacetate], for which the values for the MIC in experiment [1] and in experiment [2] were 8 mg/L and 64 mg/L, respectively.

`O=C(O)C1=C(/C=C/c2ccccn2)C[C@@H]2CN[C@@H]3C(=O)N1[C@H]23` [Example 50, (E)-(1aS,3aR,6bR)-1-Oxo-5-(2-pyridin-2-yl-vinyl)-1a,2,3,3a,4,6b-hexahydro-1H-2,6a-diaza-cyclobut[cd]indene-6-carboxylic acid trifluoroacetate (1:1.58)]: the MIC in experiment [1] and in experiment [2] was 64 mg/L in each case.

As for `O=C(O)C1=C(/C=C/c2ccncc2)C[C@@H]2CN[C@@H]3C(=O)N1[C@H]23` [Example 51, (E)-(1aS,3aR,6bR)-1-Oxo-5-(2-pyridin-4-yl-vinyl)-1a,2,3,3a,4,6b-hexahydro-1H-2,6a-diaza-cyclobut[cd]indene-6-carboxylic acid trifluoroacetate (1:1.45)], the values for the minimum inhibitory concentration (MIC) in experiment [1] and in experiment [2] were 4 mg/L and 64 mg/L, respectively.

In the case of `O=C(O)C1=C(/C=C/c2ccc(O)cc2)C[C@@H]2CN[C@@H]3C(=O)N1[C@H]23` [Example 52, (E)-(1aS,3aR,6bR)-1-Oxo-5-[2-(4-hydroxy-phenyl)-vinyl]-1a,2,3,3a,4,6b-hexahydro-1H-2,6a-diaza-cyclobut[cd]indene-6-carboxylic acid trifluoroacetate (1:0.83)], the values for the MIC in experiment [1] and in experiment [2] were 4 mg/L and 64 mg/L, respectively.

Consider `O=C(O)C1=C(/C=C/c2cccnc2)C[C@@H]2CN[C@@H]3C(=O)N1[C@H]23` [Example 53, (E)-(1aS,3aR,6bR)-1-Oxo-5-(2-pyridin-3-yl-vinyl)-1a,2,3,3a,4,6b-hexahydro-1H-2,6a-diaza-cyclobut[cd]indene-6-carboxylic acid trifluoroacetate (1:1.5)], for which the minimum inhibitory concentration (MIC) amounted to 2 mg/L in experiment [1] and 64 mg/L in experiment [2].

Take `O=C(O)C1=C(/C=C/c2ccc3ccccc3n2)C[C@@H]2CN[C@@H]3C(=O)N1[C@H]23` [Example 54, (E)-(1aS,3aR,6bR)-1-Oxo-5-(2-quinolin-2-yl-vinyl)-1a,2,3,3a,4,6b-hexahydro-1H-2,6a-diaza-cyclobut[cd]indene-6-carboxylic acid trifluoroacetate (1:1.5)]: the MIC in experiment [1] and in experiment [2] was 64 mg/L each time.

For `O=C(O)C1=C(/C=C/c2cnc3ccccc3c2)C[C@@H]2CN[C@@H]3C(=O)N1[C@H]23` [Example 55, (E)-(1aS,3aR,6bR)-1-Oxo-5-(2-quinolin-3-yl-vinyl)-1a,2,3,3a,4,6b-hexahydro-1H-2,6a-diaza-cyclobut[cd]indene-6-carboxylic acid trifluoroacetate (1:1.4)], the minimum inhibitory concentration (MIC) was determined as 4 mg/L in experiment [1] and 64 mg/L in experiment [2].

In the case of `O=CN1C[C@H]2CC(/C=C/c3ccccn3)=C(C(=O)O)N3C(=O)[C@@H]1[C@@H]23` [Example 56, (E)-(1aS,3aR,6bR)-2-Formyl-1-oxo-5-(2-pyridin-2-yl-vinyl)-1a,2,3,3a,4,6b-hexahydro-1H-2,6a-diaza-cyclobut[cd]indene-6-carboxylic acid sodium salt (1:1)], the values for the minimum inhibitory concentration (MIC) in experiment [1] and in experiment [2] were 1 mg/L and 4 mg/L, respectively.

`CC(=O)N1C[C@H]2CC(/C=C/c3ccccc3)=C(C(=O)O)N3C(=O)[C@@H]1[C@@H]23` [Example 57, (E)-(1aS,3aR,6bR)-2-Acetyl-1-oxo-5-styryl-1a,2,3,3a,4,6b-hexahydro-1H-2,6a-diaza-cyclobut[cd]indene-6-carboxylic acid sodium salt (1:1)]: the results for the MIC in experiment [1] and in experiment [2] were 4 mg/L and 64 mg/L, respectively.

With `CC(=O)N1C[C@H]2CC(/C=C/c3ccccn3)=C(C(=O)O)N3C(=O)[C@@H]1[C@@H]23` [Example 58, (E)-(1aS,3aR,6bR)-2-Acetyl-1-oxo-5-(2-pyridin-2-yl-vinyl)-1a,2,3,3a,4,6b-hexahydro-1H-2,6a-diaza-cyclobut[cd]indene-6-carboxylic acid sodium salt (1:1)], the minimum inhibitory concentration (MIC) came to 2 mg/L in experiment [1] and 4 mg/L in experiment [2].

For `CC(=O)N1C[C@H]2CC(/C=C/c3ccncc3)=C(C(=O)O)N3C(=O)[C@@H]1[C@@H]23` [Example 59, (E)-(1aS,3aR,6bR)-2-Acetyl-1-oxo-5-(2-pyridin-4-yl-vinyl)-1a,2,3,3a,4,6b-hexahydro-1H-2,6a-diaza-cyclobut[cd]indene-6-carboxylic acid sodium salt (1:1)], the MIC in experiment [1] stood at 1 mg/L; in experiment [2] it was 32 mg/L.

As to `CC(=O)N1C[C@H]2CC(/C=C/c3ccc(O)cc3)=C(C(=O)O)N3C(=O)[C@@H]1[C@@H]23` [Example 60, (E)-(1aS,3aR,6bR)-2-Acetyl-1-oxo-5-[2-(4-hydroxy-phenyl)-vinyl]-1a,2,3,3a,4,6b-hexahydro-1H-2,6a-diaza-cyclobut[cd]indene-6-carboxylic acid sodium salt (1:1)], the MIC turned out to be 2 mg/L in experiment [1] and 32 mg/L in experiment [2].

Turning to `CC(=O)N1C[C@H]2CC(/C=C/c3ccc4ccccc4n3)=C(C(=O)O)N3C(=O)[C@@H]1[C@@H]23` [Example 61, (E)-(1aS,3aR,6bR)-2-Acetyl-1-oxo-5-(2-quinolin-2-yl-vinyl)-1a,2,3,3a,4,6b-hexahydro-1H-2,6a-diaza-cyclobut[cd]indene-6-carboxylic acid sodium salt (1:1)], the minimum inhibitory concentration (MIC) in experiment [1] and in experiment [2] was 64 mg/L in each case.

Consider `CC(=O)N1C[C@H]2CC(/C=C/c3cccnc3)=C(C(=O)O)N3C(=O)[C@@H]1[C@@H]23` [Example 62, (E)-(1aS,3aR,6bR)-2-Acetyl-1-oxo-5-(2-pyridin-3-yl-vinyl)-1a,2,3,3a,4,6b-hexahydro-1H-2,6a-diaza-cyclobut[cd]indene-6-carboxylic acid sodium salt (1:1)], for which the MIC came to 2 mg/L in experiment [1] and 8 mg/L in experiment [2].

`CC(=O)N1C[C@H]2CC(/C=C/c3cnc4ccccc4c3)=C(C(=O)O)N3C(=O)[C@@H]1[C@@H]23` [Example 63, (E)-(1aS,3aR,6bR)-2-Acetyl-1-oxo-5-(2-quinolin-3-yl-vinyl)-1a,2,3,3a,4,6b-hexahydro-1H-2,6a-diaza-cyclobut[cd]indene-6-carboxylic acid sodium salt (1:1)]: the minimal inhibitory concentration (MIC) came to 0.5 mg/L in experiment [1] and 64 mg/L in experiment [2].

For `O=C(O)C1=C(/C=C/c2ccccn2)C[C@@H]2CN(C(=O)C(F)(F)F)[C@@H]3C(=O)N1[C@H]23` [Example 64, (E)-(1aS,3aR,6bR)-1-Oxo-5-(2-pyridin-2-yl-vinyl)-2-trifluoroacetyl-1a,2,3,3a,4,6b-hexahydro-1H-2,6a-diaza-cyclobut[cd]indene-6-carboxylic acid sodium salt (1:1)], the MIC in experiment [1] came out at 2 mg/L; in experiment [2] it was 32 mg/L.

As to `CC(=O)N1C[C@H]2CC(/C=C/c3ccc[n+](Cc4ccccc4)c3)=C(C(=O)[O-])N3C(=O)[C@@H]1[C@@H]23` [Example 66, (E)-(1aS,3aR,6bR)-2-Acetyl-5-[2-(1-benzyl-pyridin-1-ium-3-yl)-vinyl]-1-oxo-1a,2,3,3a,4,6b-hexahydro-1H-2,6a-diaza-cyclobut[cd]indene-6-carboxylate], the figures for the MIC in experiment [1] and in experiment [2] were 0.25 mg/L (≈ 0.582 µM) and 8 mg/L (≈ 18.6 µM), respectively.

`CC(=O)N1C[C@H]2CC(/C=C/c3ccc[n+](CC(N)=O)c3)=C(C(=O)[O-])N3C(=O)[C@@H]1[C@@H]23` [Example 67, (E)-(1aS,3aR,6bR)-2-Acetyl-5-[2-(1-carbamoylmethyl-pyridin-1-ium-3-yl)-vinyl]-1-oxo-1a,2,3,3a,4,6b-hexahydro-1H-2,6a-diaza-cyclobut[cd]indene-6-carboxylate]: the minimum inhibitory concentration (MIC) in experiment [1] was determined as 0.25 mg/L (≈ 0.631 µM); in experiment [2], 16 mg/L (≈ 40.4 µM).

For the compound `CC(=O)N1C[C@H]2CC(/C=C/c3cc4ccccc4[n+](CC(N)=O)c3)=C(C(=O)[O-])N3C(=O)[C@@H]1[C@@H]23` [Example 68, (E)-(1aS,3aR,6bR)-2-Acetyl-5-[2-(1-carbamoylmethyl-quinolin-1-ium-3-yl)-vinyl]-1-oxo-1a,2,3,3a,4,6b-hexahydro-1H-2,6a-diaza-cyclobut[cd]indene-6-carboxylate], the MIC in experiment [1] was determined as 0.5 mg/L (≈ 1.12 µM); in experiment [2], 16 mg/L (≈ 35.8 µM).

For `CC(=O)N1C[C@H]2CC(/C=C/c3ccc[n+](C/C=C/c4ccccc4)c3)=C(C(=O)[O-])N3C(=O)[C@@H]1[C@@H]23` [Example 69, (1aS,3aR,6bR)-2-Acetyl-1-oxo-5-[(E)-2-[1-[(E)-3-phenylallyl]-pyridin-1-ium-3-yl)-vinyl]-1a,2,3,3a,4,6b-hexahydro-1H-2,6a-diaza-cyclobut[cd]indene-6-carboxylate], the figures for the minimum inhibitory concentration (MIC) in experiment [1] and in experiment [2] were 0.25 mg/L (≈ 0.549 µM) and 32 mg/L (≈ 70.3 µM), respectively.

In the case of `CC(=O)N1C[C@H]2CC(/C=C/c3ccc[n+](CC(=O)Nc4ccc(O)cc4)c3)=C(C(=O)[O-])N3C(=O)[C@@H]1[C@@H]23` [Example 70, (E)-(1aS,3aR,6bR)-2-Acetyl-5-[2-[1-[(4-hydroxyphenylcarbamoyl)-methyl]-pyridin-1-ium-3-yl)-vinyl]-1-oxo-1a,2,3,3a,4,6b-hexahydro-1H-2,6a-diaza-cyclobut[cd]indene-6-carboxylate], the values for the MIC in experiment [1] and in experiment [2] were 0.25 mg/L (≈ 0.512 µM) and 8 mg/L (≈ 16.4 µM), respectively.

Take `CC(=O)N1C[C@H]2CC(/C=C/c3ccc[n+](Cc4ccc(OC(F)(F)F)cc4)c3)=C(C(=O)[O-])N3C(=O)[C@@H]1[C@@H]23` [Example 71]: the MIC worked out at 0.5 mg/L (≈ 0.974 µM) in experiment [1] and 64 mg/L (≈ 125 µM) in experiment [2].
